# Laboratory results reported in patent publication US7956077B2, “2-{-3,′2-(phenyl)-oxazol-4-ylmethoxyl-cyclohexyl methoxy}-propionic acid derivatives used as peroxisome proliferator-activated receptor (PPAR) ligands for the treatment of hyperlipidemia and diabetes” (Sanofi-Aventis Deutschland GmbH, priority 2004, dated 2011).
# Values joined by “and” are separate entries in the source; they are usually repeats but may differ in a detail not shown here. Equal values may be shown once.
# Legend:
# human PPARgamma = target: T1, human PPARgamma (Homo sapiens, UniProt P37231); experiment: Cellular PPARgamma assay (transiently transfected HEK cells, luciferase reporter); format: cell-based; conditions: HEK cells transiently transfected with GAL4-humanPPARgammaLBD, 48 h incubation
# T1 construct: human PPARgamma receptor (amino acids 1152-Y475); expressed in transfected cells; host or cells: HEK cells, transiently transfected with pcDNA3-GAL4-humanPPARgammaLBD
# T1 sequence (P37231 182-477 isoform P37231-2 limits assumed): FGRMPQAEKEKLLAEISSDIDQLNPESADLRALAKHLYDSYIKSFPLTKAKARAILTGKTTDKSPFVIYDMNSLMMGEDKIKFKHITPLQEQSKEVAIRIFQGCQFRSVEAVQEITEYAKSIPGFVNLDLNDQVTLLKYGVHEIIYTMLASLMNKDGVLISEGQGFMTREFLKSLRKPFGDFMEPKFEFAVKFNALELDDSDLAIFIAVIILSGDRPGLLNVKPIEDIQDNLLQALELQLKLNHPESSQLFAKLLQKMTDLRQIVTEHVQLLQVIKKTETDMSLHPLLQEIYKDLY
# From the text: Determination of EC50 Values of PPAR Agonists in the Cellular PPARgamma Assay
# A transient transfection system is employed to determine the cellular PPARgamma activity of PPAR agonists. It is based on the use of a luciferase reporter plasmid (pGL3basic-5×GAL4-TK) and of a PPARgamma expression plasmid (pcDNA3-GAL4-humanPPARgammaLBD). Both plasmids are transiently transfected into human mbryonic kidney cells (HEK cells). There is then expression in these cells of the usion protein GAL4-humanPPARgammaLBD which binds to the GAL4 binding sites of he reporter plasmid. In the presence of a PPARgamma-active ligand, the activated usion protein GAL4-humanPPARgammaLBD induces expression of the luciferase reporter gene, which can be detected in the form of a chemiluminescence signal after addition of a luciferase substrate. As a difference from the stably transfected PPARalpha reporter cell line, in the cellular PPARgamma assay the two components (luciferase reporter plasmid and PPARgamma expression plasmid) are transiently transfected into HEK cells because stable and permanent expression of the PPARgamma fusion protein is cytotoxic.
# Construction of the Plasmids
# The luciferase reporter plasmid pGL3basic-5×GAL4-TK is based on the vector pGL3basic from Promega. The reporter plasmid is prepared by cloning five binding sites of the yeast transcription factor GAL4 (each binding site with the sequence 5′-CTCGGAGGACAGTACTCCG-3′), together with a 160 bp-long thymidine kinase promoter section (Genbank Accession # AF027128) 5′-upstream into pGL3basic. 3′-downstream of the thymidine kinase promoter is the complete luciferase gene from Photinus pyralis (Genbank Accession # M15077), which is already a constituent of the plasmid pGL3basic used. The cloning and sequencing of the reporter plasmid pGL3basic-5×GAL4-TK took place in analogy to the description in Sambrook J. et. al. (Molecular cloning, Cold Spring Harbor Laboratory Press, 1989).
# The PPARgamma expression plasmid pcDNA3-GAL4-humanPPARgammaLBD was prepared by first cloning the cDNA coding for amino acids 1-147 of the yeast transcription factor GAL4 (Genbank Accession # P04386) into the plasmid pcDNA3 (from Invitrogen) 3′-downstream of the cytomegalovirus promoter. Subsequently, the cDNA of the ligand-binding domain (LBD) of the human PPARgamma receptor (amino acids 1152-Y475; Accession # g1480099) 3′-downstream of the GAL4 DNA binding domain was cloned. Cloning and sequencing of the PPARgamma expression plasmid pcDNA3-GAL4-humanPPARgammaLBD again took place in analogy to the description in Sambrook J. et. al. (Molecular cloning, Cold Spring Harbor Laboratory Press, 1989). Besides the luciferase reporter plasmid pGL3basic-5×GAL4-TK and the PPARgamma expression plasmid pcDNA3-GAL4-humanPPARgammaLBD, also used for the cellular PPARgamma assay are the reference plasmid pRL-CMV (from Promega) and the plasmid pBluescript SK(+) from Stratagene. All four plasmids were prepared using a plasmid preparation kit from Qiagen, which ensured a plasmid quality with a minimal endotoxin content, before transfection into HEK cells.
# The activity of PPARgamma agonists is determined in a 4-day assay which is described below. Before the transfection, HEK cells are cultivated in DMEM medium (#41965-039, Invitrogen) which is mixed with the following additions: 10% FCS (#16000-044, Invitrogen), 1% penicillin-streptomycin solution (#15140-122, Invitrogen) and 2 mM L-glutamine (#25030-024, Invitrogen).
# Firstly, solution A, a transfection mixture which contains all four plasmids previously described in addition to DMEM medium, is prepared. […]
# human PPARalpha = target: T2, human PPARalpha (Homo sapiens, UniProt Q07869); experiment: Cellular PPARalpha assay (stably transfected HEK luciferase reporter cell line); format: cell-based; conditions: PPARalpha reporter cell line (HEK, GR-GAL4-humanPPARalpha-LBD), 24 h incubation
# T2 construct: human PPARalpha receptor (amino acids S167-Y468); expressed in transfected cells; host or cells: HEK cells, stably transfected (pcDNA3 construct)
# T2 sequence (Q07869 167-468): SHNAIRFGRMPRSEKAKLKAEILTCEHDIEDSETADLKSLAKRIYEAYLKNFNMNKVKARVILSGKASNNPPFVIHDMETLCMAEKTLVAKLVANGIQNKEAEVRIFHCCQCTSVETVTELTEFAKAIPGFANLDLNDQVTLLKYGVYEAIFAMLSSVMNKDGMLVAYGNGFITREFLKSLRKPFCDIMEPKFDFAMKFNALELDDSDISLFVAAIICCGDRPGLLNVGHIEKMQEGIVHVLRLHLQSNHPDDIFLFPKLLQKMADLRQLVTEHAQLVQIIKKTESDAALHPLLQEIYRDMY
# Experimental: Determination of EC50 Values of PPAR Agonists in the Cellular PPARalpha Assay
# The potency of substances which bind to human PPARalpha and activate it in an agonistic manner is analyzed using a stably transfected HEK cell line (HEK=human embryo kidney) which is referred to here as PPARalpha reporter cell line. It contains two genetic elements, a luciferase reporter element (pdeltaM-GAL4-Luc-Zeo) and a PPARalpha fusion protein (GR-GAL4-humanPPARalpha-LBD) which mediates expression of the luciferase reporter element depending on a PPARalpha ligand. The stably and constitutively expressed fusion protein GR-GAL4-humanPPARalpha-LBD binds in the cell nucleus of the PPARalpha reporter cell line via the GAL4 protein portion to the GAL4 DNA binding motifs 5′-upstream of the luciferase reporter element which is stably integrated in the genome of the cell line. There is only little expression of the luciferase reporter gene without addition of a PPARalpha ligand if fatty acid-depleted fetal calf serum (cs-FCS) is used in the assay. PPARalpha ligands bind and activate the PPARalpha fusion protein and thereby bring about expression of the luciferase reporter gene. The luciferase which is formed can be detected by means of chemiluminescence via an appropriate substrate.
# Construction of the Cell Line
# The PPARalpha reporter cell line was prepared in two steps. Firstly, the luciferase reporter element was constructed and stably transfected into HEK cells. For this purpose, five binding sites of the yeast transcription factor GAL4 (in each case 5′-CGGAGTACTGTCCTCCGAG-3′) were cloned in 5′-upstream of a 68 bp-long minimal MMTV promoter (Genbank Accession # V01175). The minimal MMTV promoter section contains a CCAAT box and a TATA element in order to enable efficient transcription by RNA polymerase II. The cloning and sequencing of the GAL4-MMTV construct took place in analogy to the description of Sambrook J. et. al. (Molecular cloning, Cold Spring Harbor Laboratory Press, 1989). Then the complete Photinus pyralis luciferase gene (Genbank Accession # M15077) was cloned in 3′-downstream of the GAL4-MMTV element. After sequencing, the luciferase reporter element consisting of five GAL4 binding sites, MMTV promoter and luciferase gene was subcloned into a plasmid which confers zeozin resistance in order to obtain the plasmid pdeltaM-GAL4-Luc-Zeo. This vector was transfected into HEK cells in accordance with the statements in Ausubel, F. M. et al. (Current protocols in molecular biology, Vol. 1-3, John Wiley & Sons, Inc., 1995).
# In a second step, the PPARalpha fusion protein (GR-GAL4-humanPPARalpha-LBD) was introduced into the stable cell clone described. For this purpose, initially the cDNA coding for the N-terminal 76 amino acids of the glucocorticoid receptor (Genbank Accession # P04150) was linked to the cDNA section coding for amino acids 1-147 of the yeast transcription factor GAL4 (Genbank Accession # P04386). The cDNA of the ligand-binding domain of the human PPARalpha receptor (amino acids S167-Y468; Genbank Accession # S74349) was cloned in at the 3′ end of this GR-GAL4 construct. The fusion construct prepared in this way (GR-GAL4-humanPPARalpha-LBD) was subcloned into the plasmid pcDNA3 (from Invitrogen) in order to enable constitutive expression therein by the cytomegalovirus promoter. This plasmid was linearized with a restriction endonuclease and stably transfected into the previously described cell clone containing the luciferase reporter element. The finished PPARalpha reporter cell line which contains a luciferase reporter element and constitutively expresses the PPARalpha fusion protein (GR-GAL4-humanPPARalpha-LBD) was isolated by selection with zeozin (0.5 mg/ml) and G418 (0.5 mg/ml).
# The activity of PPARalpha agonists is determined in a 3-day assay which is described below: […]
EC50 (human PPARgamma),EC50 (human PPARalpha),SMILES
130 nM,6.6 nM,"CCCC(C)(OC[C@@H]1CCC[C@H](OCc2nc(-c3ccc4ccccc4c3)oc2CC)C1)C(=O)O (mixture of isomers) [Example 13, 2-{(1R,3S)-3-[5-Ethyl-2-(naphth-2-yl)oxazol-4-ylmethoxy]cyclohexylmethoxy}-2-methylpentanoic acid]"
870 nM,4.1 nM,"CCCC(C)(OC[C@@H]1CCC[C@H](OCc2nc(-c3ccc(C)cc3)oc2CC)C1)C(=O)O (mixture of isomers) [Example 11, 2-[(1R,3S)-3-(5-Ethyl-2-p-tolyloxazol-4-ylmethoxy)cyclohexylmethoxy]-2-methyl-pentanoic acid]"
> 10000 nM,–,Cc1ccc(-c2nc(CO[C@H]3CCC[C@@H](COC(C)(C)C(=O)O)C3)c(C)o2)cc1 [*]
1100 nM,2 nM,"CCc1oc(-c2ccc3ccccc3c2)nc1CO[C@H]1CCC[C@@H](COC(C)(C)C(=O)O)C1 [Example 4, 2-{(1R,3S)-3-[5-Ethyl-2-(napth-2-yl)oxazol-4-ylmethoxy]cyclohexylmethoxy}-2-methylpropionic acid]"
1500 nM,12 nM,"CCc1oc(-c2cccc(C(F)(F)F)c2)nc1CO[C@H]1CCC[C@@H](COC(C)(C)C(=O)O)C1 [Example 5, 2-{(1R,3S)-3-[5-Ethyl-2-(3-trifluoromethylphenyl)oxazol-4-ylmethoxy]cyclo-hexylmethoxy}-2-methylpropionic acid]"
510 nM,0.16 nM,"CCc1oc(-c2ccc(C)cc2)nc1CO[C@H]1CCC[C@@H](COC(C)(Cc2ccccc2)C(=O)O)C1 (mixture of isomers) [Example 17, 2-[(1R,3S)-3-(5-Ethyl-2-p-tolyloxazol-4-ylmethoxy)cyclohexylmethoxy]-2-methyl-3-phenylpropionic acid]"
670 nM,19 nM,"CCc1oc(-c2ccc(CC(C)C)cc2)nc1CO[C@H]1CCC[C@@H](COC(C)(C)C(=O)O)C1 [Example 3, 2-{(1R,3S)-3-[5-Ethyl-2-(4-isobutylphenyl)-oxazol-4-ylmethoxy]cyclohexylmethoxy}-2-methylpropionic acid]"
160 nM,0.39 nM,"CCCC(C)(OC[C@@H]1CCC[C@H](OCc2nc(-c3ccc4ccccc4c3)oc2C)C1)C(=O)O (mixture of isomers) [Example 15, 2-Methyl-2-{(1R,3S)-3-[5-methyl-2-(naphth-2-yl)oxazol-4-ylmethoxy]-cyclohexylmethoxy}pentanoic acid]"
2900 nM,3.5 nM,"CCc1oc(-c2ccc(C)cc2)nc1CO[C@H]1CCC[C@@H](COC(C)(C)C(=O)O)C1 [Example 2, 2-[(1R,3S)-3-(5-Ethyl-2-p-tolyloxazol-4-ylmethoxy)cyclohexylmethoxy]-2-methylpropionic acid]"
–,0.38 nM and 0.53 nM,"CCCC(C)(OC[C@@H]1CCC[C@H](OCc2nc(-c3ccc(C(C)C)cc3)oc2CC)C1)C(=O)O (mixture of isomers) [Example 14, 2-{(1R,3S)-3-[5-Ethyl-2-(4-isopropylphenyl)oxazol-4-ylmethoxy}cyclohexylmethoxy]-2-methylpentanoic acid]"
600 nM,5.8 nM,"Cc1oc(-c2ccc3ccccc3c2)nc1CO[C@H]1CCC[C@@H](COC(C)(Cc2ccccc2)C(=O)O)C1 (mixture of isomers) [Example 21, 2-Methyl-2-{(1R,3S)-3-[5-methyl-2-(naphth-2-yl)oxazol-4-ylmethoxy]-cyclohexyimethoxy}-3-phenylpropionic acid]"
150 nM,2.6 nM,"CCc1oc(-c2ccc(CC(C)C)cc2)nc1CO[C@H]1CCC[C@@H](COC(C)(Cc2ccccc2)C(=O)O)C1 (mixture of isomers) [Example 18, 2-{(1R,3S)-3-[5-Ethyl-2-(4-isobutylphenyl)oxazol-4-ylmethoxy]cyclohexylmethoxy}-2-methyl-3-phenylpropionic acid]"
390 nM,320 nM,"COc1cccc(-c2nc(CO[C@H]3CCC[C@@H](COC(C)(C)C(=O)O)C3)c(C(C)C)o2)c1 [Example 9, 2-{(1R,3S)-3-[5-lsopropyl-2-(3-methoxypheny)oxazol-4-ylmethoxy]cyclo-hexylmethoxy}-2-methyl propionic acid]"
